In the first assay the target is T1, recombinant CYP-17 (Homo sapiens, UniProt P05093).
T1 construct: expressed in transfected cells
T1 sequence (P05093 1-508): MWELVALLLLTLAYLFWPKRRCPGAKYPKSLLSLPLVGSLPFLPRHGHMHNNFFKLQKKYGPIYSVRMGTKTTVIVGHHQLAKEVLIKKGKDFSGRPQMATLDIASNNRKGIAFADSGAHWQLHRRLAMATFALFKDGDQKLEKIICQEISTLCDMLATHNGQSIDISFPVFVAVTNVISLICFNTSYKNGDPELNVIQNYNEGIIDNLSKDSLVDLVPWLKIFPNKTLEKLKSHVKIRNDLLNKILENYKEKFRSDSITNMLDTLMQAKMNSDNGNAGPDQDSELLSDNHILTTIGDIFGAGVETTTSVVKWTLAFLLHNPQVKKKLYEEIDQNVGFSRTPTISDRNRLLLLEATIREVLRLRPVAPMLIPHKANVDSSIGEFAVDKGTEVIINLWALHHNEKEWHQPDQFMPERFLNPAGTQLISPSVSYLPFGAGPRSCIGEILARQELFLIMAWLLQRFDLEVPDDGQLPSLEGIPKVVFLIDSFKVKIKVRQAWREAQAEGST
In words: Cyp17 assay: AD293 cells over-expressing recombinant CYP-17, 3H-acetic acid release from [21-3H] 17α-hydroxyl-Pregnenolone. In kind it is cell-based. Conditions: AD293, 4 h, read-out: Cyp17 % @ 0.1 μM (printed in the Cyp17 IC50 column). As for the experimental part:
Cyp17 assay protocol: AD293 cells that stably over-express recombinant CYP-17 were seeded in 96 well plates coated with poly D-lysine (15,000 cell per well) and incubated at 37° C. for 24 hours in Dulbecco's Modified Eagle Medium (DMEM) with Fetal Bovine Serum (FBS) that is stripped of hormones by charcoal treatment. The media is then removed, the cells are washed once with Phosphate buffer saline solution, and 50 μL Dulbecco's Modified Eagle Medium (DMEM) with Fetal Bovine Serum (FBS) that is stripped of hormones by charcoal treatment is added. Compounds of the disclosure are then added to the wells in eight concentration spanning 10 μM to 4.5 nM, and the plates are incubated for an additional 60 minutes at 37° C. [21-^3H] […] The media is then collected, 200 μL of chloroform is added, and the mixture is shaken for 1 hour. The aqueous layer is then separated and analyzed for the presence of ^3H-acetic acid using a Perkin Elmer Topcount NXT to determine IC50s of the compounds of the disclosure.
For the molecule `COC(=O)N1CCN(c2ccc(OC[C@@H]3CO[C@@](Cn4ccnc4)(c4ccc(Cl)cc4Cl)O3)cc2)CC1` (racemic) [Entry 1], the inhibition at 0.1 µM was 83%.

The assay is the same for the next values; noted with them: AD293 cells, eight concentrations 10 μM to 4.5 nM.
Usually IC50 stands for the midpoint of a concentration-inhibition curve. `COCCOC(=O)N1CCN(c2ccc(OC[C@@H]3CO[C@@](Cn4ccnc4)(c4ccc(Cl)cc4Cl)O3)cc2)CC1` (racemic) [Entry 2]: the IC50 came out at 100 nM.

For the molecule `CN(C)C(=O)N1CCN(c2ccc(OC[C@@H]3CO[C@@](Cn4ccnc4)(c4ccc(Cl)cc4Cl)O3)cc2)CC1` (racemic) [Entry 3], the half-maximal inhibitory concentration (IC50) amounted to 100 nM.

Turning to `Clc1ccc([C@]2(Cn3ccnc3)OC[C@@H](COc3ccc(N4CCN(C5=NCCO5)CC4)cc3)O2)c(Cl)c1` (racemic) [Entry 34], the IC50 came out at 30 nM.

As for `CCNC(=O)N1CCN(c2ccc(OC[C@@H]3CO[C@@](Cn4ccnc4)(c4ccc(Cl)cc4Cl)O3)cc2)CC1` [Entry 12], the half-maximal inhibitory concentration (IC50) was determined as 35 nM.

As for `CCOC(=O)CNC(=O)N1CCN(c2ccc(OC[C@@H]3CO[C@@](Cn4ccnc4)(c4ccc(Cl)cc4Cl)O3)cc2)CC1` [Entry 13], the IC50 was 25 nM.

For the molecule `CCNC(=O)N1CCN(c2ccc(OC[C@H]3CO[C@](Cn4ccnc4)(c4ccc(Cl)cc4Cl)O3)cc2)CC1` [Entry 14], the IC50 is 43 nM.

Take `CCOC(=O)CNC(=O)N1CCN(c2ccc(OC[C@H]3CO[C@](Cn4ccnc4)(c4ccc(Cl)cc4Cl)O3)cc2)CC1` [Entry 15]: the IC50 was 310 nM.

For the molecule `COC(=O)[C@@H](NC(=O)N1CCN(c2ccc(OC[C@@H]3CO[C@@](Cn4ccnc4)(c4ccc(Cl)cc4Cl)O3)cc2)CC1)C(C)C` [Entry 16], the 50% inhibitory concentration (IC50) was determined as 10 nM.

Another assay deals with T2, recombinant CYP-21 (Homo sapiens, UniProt P08686).
T2 construct: expressed in transfected cells
T2 sequence (P08686 1-495): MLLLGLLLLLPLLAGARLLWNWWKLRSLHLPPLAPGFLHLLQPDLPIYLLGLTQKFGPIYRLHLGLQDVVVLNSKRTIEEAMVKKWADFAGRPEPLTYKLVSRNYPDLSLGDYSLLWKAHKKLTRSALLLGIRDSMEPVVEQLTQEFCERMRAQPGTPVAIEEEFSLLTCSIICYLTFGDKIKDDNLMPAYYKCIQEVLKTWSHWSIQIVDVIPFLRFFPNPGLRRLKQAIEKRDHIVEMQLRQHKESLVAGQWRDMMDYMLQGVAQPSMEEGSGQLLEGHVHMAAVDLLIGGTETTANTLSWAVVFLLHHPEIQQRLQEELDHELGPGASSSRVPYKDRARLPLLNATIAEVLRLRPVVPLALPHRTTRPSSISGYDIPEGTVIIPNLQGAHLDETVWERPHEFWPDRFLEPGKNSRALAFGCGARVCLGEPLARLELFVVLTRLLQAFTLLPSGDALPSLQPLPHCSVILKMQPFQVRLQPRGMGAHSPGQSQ
In words: Cyp21 assay: AD293 cells over-expressing recombinant CYP-21, 11-deoxycortisol formation from 17α-OH Progesterone by LC/MS. In kind it is cell-based. Conditions: eight concentrations 10 μM to 4.5 nM. As for the experimental part: (§1) Cyp21 assay protocol: AD293 cells that stably over-express recombinant CYP-21 were seeded in 96 well plates coated with poly D-lysine (10,000 cell per well) and incubated at 37° C. for 24 hours in Dulbecco's Modified Eagle Medium (DMEM) with Fetal Bovine Serum (FBS) that is stripped of hormones by charcoal treatment. The media is then removed, the cells are washed once with Phosphate buffer saline solution, and 50 μL Dulbecco's Modified Eagle Medium (DMEM) with Fetal Bovine Serum (FBS) that is stripped of hormones by charcoal treatment is added. Compounds of the disclosure are then added to the wells in eight concentration spanning 10 μM to 4.5 nM, and the plates are incubated for an additional 60 minutes at 37° C. 17α-OH Progesterone is then added (1.0 μM) and the plates are incubated for an additional 45 minutes at 37° C. After incubation, 50 uL of the supernatant (medium) is transferred into a fresh plate and 150 uL of an acetonitrile solution containing 200 ng/ml of Telmisartan is added. The sample is mixed and then placed in a centrifuge at 2000 rpm for 5 minutes.
For the molecule `COC(=O)N1CCN(c2ccc(OC[C@@H]3CO[C@@](Cn4ccnc4)(c4ccc(Cl)cc4Cl)O3)cc2)CC1` (racemic) [Entry 1], the concentration for half-maximal inhibition (IC50) was 160 nM.

As to `COCCOC(=O)N1CCN(c2ccc(OC[C@@H]3CO[C@@](Cn4ccnc4)(c4ccc(Cl)cc4Cl)O3)cc2)CC1` (racemic) [Entry 2], the half-maximal inhibitory concentration (IC50) is 230 nM.

For `Clc1ccc([C@]2(Cn3ccnc3)OC[C@@H](COc3ccc(N4CCN(C5=NCCO5)CC4)cc3)O2)c(Cl)c1` (racemic) [Entry 34], the half-inhibitory concentration (IC50) was 423 nM.

On to `CCNC(=O)N1CCN(c2ccc(OC[C@@H]3CO[C@@](Cn4ccnc4)(c4ccc(Cl)cc4Cl)O3)cc2)CC1` [Entry 12], for which the IC50 was 690 nM.

Take `CCOC(=O)CNC(=O)N1CCN(c2ccc(OC[C@@H]3CO[C@@](Cn4ccnc4)(c4ccc(Cl)cc4Cl)O3)cc2)CC1` [Entry 13]: the IC50 was 710 nM.

As to `CCOC(=O)CNC(=O)N1CCN(c2ccc(OC[C@H]3CO[C@](Cn4ccnc4)(c4ccc(Cl)cc4Cl)O3)cc2)CC1` [Entry 15], the IC50 worked out at 2460 nM.

Regarding `COC(=O)[C@@H](NC(=O)N1CCN(c2ccc(OC[C@@H]3CO[C@@](Cn4ccnc4)(c4ccc(Cl)cc4Cl)O3)cc2)CC1)C(C)C` [Entry 16], the IC50 stood at 244 nM.

A further assay deals with T3, recombinant CYP-11 (Homo sapiens, UniProt P15538).
T3 construct: expressed in transfected cells
T3 sequence (P15538 25-503): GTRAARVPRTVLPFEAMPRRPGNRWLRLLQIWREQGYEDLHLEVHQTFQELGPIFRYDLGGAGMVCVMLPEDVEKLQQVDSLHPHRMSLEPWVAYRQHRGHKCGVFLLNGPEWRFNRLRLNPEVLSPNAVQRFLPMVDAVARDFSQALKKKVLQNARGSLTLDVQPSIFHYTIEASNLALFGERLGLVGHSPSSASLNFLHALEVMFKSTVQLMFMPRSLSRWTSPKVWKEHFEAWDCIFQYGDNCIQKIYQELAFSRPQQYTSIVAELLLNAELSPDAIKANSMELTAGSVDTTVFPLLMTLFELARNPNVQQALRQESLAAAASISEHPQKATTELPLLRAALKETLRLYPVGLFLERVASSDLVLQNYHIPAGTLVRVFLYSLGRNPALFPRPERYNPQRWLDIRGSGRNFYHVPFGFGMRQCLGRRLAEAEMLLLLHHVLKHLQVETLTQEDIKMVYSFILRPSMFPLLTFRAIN
In words: Cyp11 assay: AD293 cells over-expressing recombinant CYP-11, cortisol formation from 11-deoxycortisol by LC/MS. In kind it is cell-based. Particulars: eight concentrations 10 μM to 4.5 nM. As for the experimental part:
as §1, with “AD293” for “Cyp21 assay protocol: AD293”, “CYP-11” for “CYP-21”, “(15,000” for “(10,000”, “11-deoxycortisol” for “17α-OH Progesterone”, “(2.0” for “(1.0”, “12 hours” for “45 minutes”
With `COC(=O)N1CCN(c2ccc(OC[C@@H]3CO[C@@](Cn4ccnc4)(c4ccc(Cl)cc4Cl)O3)cc2)CC1` (racemic) [Entry 1], the half-maximal inhibitory concentration (IC50) turned out to be 100 nM.

For the molecule `COCCOC(=O)N1CCN(c2ccc(OC[C@@H]3CO[C@@](Cn4ccnc4)(c4ccc(Cl)cc4Cl)O3)cc2)CC1` (racemic) [Entry 2], the IC50 turned out to be 100 nM.

For `CN(C)C(=O)N1CCN(c2ccc(OC[C@@H]3CO[C@@](Cn4ccnc4)(c4ccc(Cl)cc4Cl)O3)cc2)CC1` (racemic) [Entry 3], the IC50 worked out at 100 nM.

On to `Clc1ccc([C@]2(Cn3ccnc3)OC[C@@H](COc3ccc(N4CCN(C5=NCCO5)CC4)cc3)O2)c(Cl)c1` (racemic) [Entry 34], for which the half-maximal inhibitory concentration (IC50) amounted to 148 nM.

For `CCNC(=O)N1CCN(c2ccc(OC[C@@H]3CO[C@@](Cn4ccnc4)(c4ccc(Cl)cc4Cl)O3)cc2)CC1` [Entry 12], the IC50 stood at 52 nM.

As for `CCOC(=O)CNC(=O)N1CCN(c2ccc(OC[C@@H]3CO[C@@](Cn4ccnc4)(c4ccc(Cl)cc4Cl)O3)cc2)CC1` [Entry 13], the IC50 is 66 nM.

Turning to `CCNC(=O)N1CCN(c2ccc(OC[C@H]3CO[C@](Cn4ccnc4)(c4ccc(Cl)cc4Cl)O3)cc2)CC1` [Entry 14], the IC50 is 500 nM.

For the molecule `CCOC(=O)CNC(=O)N1CCN(c2ccc(OC[C@H]3CO[C@](Cn4ccnc4)(c4ccc(Cl)cc4Cl)O3)cc2)CC1` [Entry 15], the half-maximal inhibitory concentration (IC50) stood at 530 nM.

On to `COC(=O)[C@@H](NC(=O)N1CCN(c2ccc(OC[C@@H]3CO[C@@](Cn4ccnc4)(c4ccc(Cl)cc4Cl)O3)cc2)CC1)C(C)C` [Entry 16], for which the IC50 was 100 nM.

Values taken from patent US20150353530A1 (CORTENDO AB (PUBL), priority 2013, published 2015).
